Where two headings read alike, the source gives them in different places.
What was measured:
[1] = tested on: six bacteria (S. aureus, E. coli, P. aeruginosa; ATCC and clinical isolate); format: cell-based; conditions: synthesized mature peptide
Procedure: (§1) Antimicrobial testing of 78 cathelicidin MPs was performed in two phases as outlined in Figure 1 . In phase I, 40 peptides (27 extant and 13 ancestral) were selected for testing based on rank (outlined above) and similarity to published marsupial cathelicidins with known antimicrobial activity ([33], [41]–[43]). These peptides were tested against nine bacteria (Staphylococcus aureus ATCC 29213 and clinical isolate, Escherichia coli ATCC 25922 and clinical isolate, Pseudomonas aeruginosa ATCC 27853 and clinical isolate, Streptococcus agalactiae ATCC 12386 and clinical isolate, Streptococcus pneumoniae ATCC 49619) and three fungi (Candida krusei ATCC 6258, Candida parapsilosis ATCC 22019, and Candida albicans clinical isolate). Details regarding these strains are available in Supplementary Table 4 . The antimicrobial activity of cathelicidins was determined as the minimum inhibitory concentration (MIC), which was the lowest concentration of cathelicidin that prevented visible bacterial or fungal growth, relative to the negative control. […] Minimum bactericidal concentration (MBC) and/or minimum fungicidal concentration (MFC) was conducted to determine microbicidal versus static action. Activity against S. aureus ATCC, E. coli ATCC, and Pseudomonas aeruginosa ATCC 27853 was examined in the presence of divalent cations to determine the impact of inhibitors.
(§2) In phase II, the remaining 38 peptides (37 extant and one ancestral) were tested against six bacteria (S. aureus ATCC and clinical isolate, E. coli ATCC and clinical isolate, and P. aeruginosa ATCC and clinical isolate). […] No further testing on phase II peptides was performed. Detailed methods for all assays are provided in subsequent sections.
(§3) Antimicrobial activity was determined using a broth microdilution susceptibility assay in 96 well polypropylene plates according to Clinical Laboratory Standards Institute guidelines M07-A and M26A as described previously ([33], [42], [43]). The bacterial and fungal isolates from humans and animals used in this study are outlined in Supplementary Table 4 . Only yeasts were included in the panel of fungi as they have been used in the susceptibility testing of eutherian ([3], [81]–[83]) and other marsupial cathelicidins previously ([33], [42], [43]). Cathelicidin mature peptides were solubilized in DMSO and serially diluted in duplicate from 128-0.25μg/mL in a final volume of 100µL. For bacteria, cathelicidins were diluted in Mueller Hinton Broth (MHB) with or without 10% lysed horse blood, and with (MH II B) or without (MHB) calcium and magnesium cations. For fungi, cathelicidins were diluted in Roswell Park Memorial Institute medium (RPMI)-1640 MOPS. Ampicillin or tetracycline were included as a positive control for Gram-positive and -negative bacteria respectively, while amphotericin B was used for fungi. A media-only negative control and growth control (no cathelicidin) were also included on each plate. Bacteria were sub-cultured on Muller Hinton agar (MHA) or sheep blood agar (BA), and fungi on Sabouraud dextrose agar (SAB), 20–24 hours prior to the test. Colonies were suspended in saline, the concentration adjusted to a 0.5 McFarland standard, and then diluted in media to a concentration of 1.0 x 10^6 cells/mL. Then, 100μL was added to each well of the cathelicidin dilution plate, giving a final inoculum density of 5 x 10^5 CFU/mL and cathelicidin concentration of 64-0.125μg/mL. Colony counts were performed on MHA/BA/SAB to confirm inoculum density. All plates were incubated at 35°C for 20–24 hours, depending on the strain.
(§4) Colonies were counted and compared to the colony count of the starting inoculum.

[2] = tested on: Escherichia coli ATCC 25922; assay: microbe, parasite or virus in culture; format: cell-based; conditions: µM equivalent of Table 3; for MBC E. coli ATCC: value in brackets
Procedure: as §1, §2, §3, §4

[3] = tested on: Escherichia coli clinical isolate - animal; assay: microbe, parasite or virus in culture; format: cell-based; conditions: clinical isolate, µM equivalent of Table 3
Procedure: as §1, §2, §3, §4

[4] = tested on: Pseudomonas aeruginosa ATCC 27853; assay: microbe, parasite or virus in culture; format: cell-based; conditions: µM equivalent of Table 3; read-out: MIC P. aeruginosa ATCC
Procedure: as §1, §2, §3, §4

[5] = tested on: Pseudomonas aeruginosa clinical isolate - animal; assay: microbe, parasite or virus in culture; format: cell-based; conditions: clinical isolate; µM equivalent of Table 3; read-out: MIC P. aeruginosa
Procedure: as §1, §2, §3, §4

[6] = tested on: Staphylococcus aureus ATCC 29213; assay: microbe, parasite or virus in culture; format: cell-based; conditions: µM equivalent of Table 3
Procedure: as §1, §2, §3, §4

[7] = tested on: Staphylococcus aureus clinical isolate - animal; assay: microbe, parasite or virus in culture; format: cell-based; conditions: clinical isolate, µM equivalent of Table 3
Procedure: as §1, §2, §3, §4

[8] = tested on: six bacteria (S. aureus, E. coli, P. aeruginosa; ATCC and clinical isolate); parameters: method as in 4 sources, ref Peel et al 2016 ||| ref Peel et al 2021 ||| ref Wang et al 2011 ||| ref Peel et al 2017; conditions: cited from earlier work
[9] = tested on: three fungi (Candida krusei, Candida parapsilosis, Candida albicans); parameters: method as in 4 sources, ref Peel et al 2016 ||| ref Peel et al 2021 ||| ref Wang et al 2011 ||| ref Peel et al 2017; conditions: cited from earlier work
[10] = broth microdilution screening, phase I or II, Y/N summary over the bacteria tested
[11] = mature peptide (MP), Y/N summary, ref Peel et al 2017
[12] = mature peptide, Y/N summary from earlier study, ref Peel et al 2017
[13] = mature peptide, Y/N summary from earlier study, ref Peel et al 2021
[14] = mature peptide, Y/N summary from earlier study, ref Peel et al 2016

Sequence: PRRKKGPKKDNYKPGGYSLIALGKPDIQKAPYMEAL [MaruCath7]
- Antibacterial (MIC <64ug/mL) [1, 10]: N (Antibacterial (MIC <64ug/mL))

Sequence: KKFLKSVIKEAISKGIPKGIQAVNKLIKEKKEGQKHKP [MAP2, marsupial ancestral peptide, predicted by ANCESCON and GASP, synthesized]
- Antibacterial (MIC <64ug/mL) ([1]; antimicrobial screening Phase II, Y/N summary over bacteria tested, broth microdilution): N (Antibacterial (MIC <64ug/mL))

Sequence: GEKVKTRFIAAIKKLIDTFLP [MaruCath8]
- Antibacterial (MIC <64ug/mL) [1, 10]: N (Antibacterial (MIC <64ug/mL))

Sequence: FRKLRNIFSRGRDDKE [MagiCath4]
- Antibacterial (MIC <64ug/mL) [1, 10]: N (Antibacterial (MIC <64ug/mL))

Sequence: KRGFGDSVKKTGTKLKNSIRRRVTGLTVGAAVLRPG [MaruCath1p]
- Antibacterial (MIC <64ug/mL) [1, 10]: N (Antibacterial (MIC <64ug/mL))

Sequence: KKTRTKPKNSIRRRIKGFGIGTIILVPL [MagiCath6, predicted eastern grey kangaroo cathelicidin mature peptide]
- MBC E. coli ATCC [2]: 8.8 µM
- MIC E. coli ATCC [2]: 8.8 µM
- MBC E. coli ([3]; value in brackets): 17.6 µM
- MIC E. coli [3]: 17.6 µM
- MIC [4]: >17.6 µM
- MIC [5]: >17.6 µM
- MBC S. aureus ATCC ([6]; value in brackets): 17.6 µM
- MIC S. aureus ATCC [6]: 17.6 µM
- MBC S. aureus ([7]; value in brackets): 17.6 µM
- MIC S. aureus [7]: 17.6 µM
- Antibacterial (MIC <64ug/mL) [1, 10]: Y (Antibacterial (MIC <64ug/mL))

Sequence: PGRKKGSKRHKPGSYSVIALGKPGVKKAPYMEAL [MagiCath2]
- Antibacterial (MIC <64ug/mL) [1, 10]: N (Antibacterial (MIC <64ug/mL))

Sequence: PIRTKRRWKLIKKGGKIVKDLLTKNNIIILPGGNE [TaacCath1]
- Antibacterial (MIC <64ug/mL) [8, 11]: Y (Peel et al 2017) (Antibacterial (MIC <64ug/mL))
- Antifungal (MIC <64ug/mL) [9, 11]: N (Peel et al 2017) (Antifungal (MIC <64ug/mL))

Sequence: SVPGTRAQSGTTSPGSGSRRVARSRG [OranCath6]
- Antibacterial (MIC <64ug/mL) [8, 11]: N (Peel et al 2017) (Antibacterial (MIC <64ug/mL))
- Antifungal (MIC <64ug/mL) [9, 11]: N (Peel et al 2017) (Antifungal (MIC <64ug/mL))

Sequence: KRGLWESLKRKVTKLGDDIRNTLRNFKIKFPVPRQG [MaeuCath7]
- Antibacterial (MIC <64ug/mL) [8, 12]: Y (Peel et al 2017) (Antibacterial (MIC <64ug/mL))
- Antifungal (MIC <64ug/mL) [9, 12]: N (Peel et al 2017) (Antifungal (MIC <64ug/mL))

Sequence: ASSGIIDTSSLPPKIRQIYNQAVYDTLVGILRNF [PhciCath6]
- Antibacterial (MIC <64ug/mL) [8, 13]: N (Peel et al 2021) (Antibacterial (MIC <64ug/mL))
- Antifungal (MIC <64ug/mL) [9, 13]: N (Peel et al 2021) (Antifungal (MIC <64ug/mL))

Sequence: RTLLRRVGEKVKTRFIAALEKLIDTFLP [MagiCath3, predicted eastern grey kangaroo cathelicidin mature peptide]
- MBC E. coli ATCC [2]: > 14.3 µM
- MIC E. coli ATCC [2]: 14.3 µM
- MIC [3]: >14.3 µM
- MIC [4]: >14.3 µM
- MIC [5]: >14.3 µM
- MIC ([6]; read-out: MIC S. aureus ATCC): >14.3 µM
- MIC ([7]; read-out: MIC S. aureus): >14.3 µM
- Antibacterial (MIC <64ug/mL) [1, 10]: Y (Antibacterial (MIC <64ug/mL))

Sequence: GIKHILFMAKTKLPRATCTAEIKENCDRKK [SahaCath1]
- Antibacterial (MIC <64ug/mL) [8, 14]: N (Peel et al 2016) (Antibacterial (MIC <64ug/mL))
- Antifungal (MIC <64ug/mL) [9, 14]: N (Peel et al 2016) (Antifungal (MIC <64ug/mL))
